Experimental data: PubChem BioAssay AID1963445 (Molecular Pharmacology Branch, DTP, NCI, 2024)
Blank lines part the entries; values can stand above or below the compound they belong to.

Tested on: MCF7 complex spheroid growth, % test/control
Assay: Anticancer human tumor MCF7 cell line growth inhibition [Asc];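 note: spheroids exposed to compounds for 7 days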;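 for viability, T/C: 100% = DMSO vehicle control wells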
Settings: for IC50: curve of first compound; for viability, T/C: stronger effect = lower value
Procedure, shortened: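 Concentration series start at each agent's clinical Cmax, or at 10 microM when none is established, and drop in half-log steps; agents are applied alone or together to complex spheroids built with HUVEC and hMSC.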

IC50 (second compound 0.00316 µM): < 9.49 nM | IC50 (second compound 0.01 µM): < 9.49 nM | IC50 (second compound 0.0316 µM): < 9.49 nM | IC50 (second compound 0.1 µM): < 9.49 nM | IC50 (second compound 0.316 µM): < 9.49 nM | IC50 (second compound 1 µM): < 9.49 nM
SMILES: CCN1C(C(=O)NC23CCC(C(=O)O)(CC2)CC3)C(c2cccc(Cl)c2F)C2(C(=O)Nc3cc(Cl)ccc32)C12CCCCC2 (centres undefined) + CNC(C)C(=O)NC1CN(S(=O)(=O)c2cccc(S(=O)(=O)N3CCC4CCC(C(=O)NC(c5ccccc5)c5ccccc5)N4C(=O)C(NC(=O)C(C)NC)C3)c2)CCC2CCC(C(=O)NC(c3ccccc3)c3ccccc3)N2C1=O
viability, T/C (second compound 0.00316 µM, first compound 0.00949 µM): 40.9% | viability, T/C (second compound 0.00316 µM, first compound 0.03 µM): 14.3% | viability, T/C (second compound 0.00316 µM, first compound 0.0949 µM): 10.8% | viability, T/C (second compound 0.00316 µM, first compound 0.3 µM): 11% | viability, T/C (second compound 0.00316 µM, first compound 0.949 µM): 8.86% | viability, T/C (second compound 0.00316 µM, first compound 3 µM): 5.04% | viability, T/C (second compound 0.01 µM, first compound 0.00949 µM): 11.4% | viability, T/C (second compound 0.01 µM, first compound 0.03 µM): 8.24% | viability, T/C (second compound 0.01 µM, first compound 0.0949 µM): 8.54% | viability, T/C (second compound 0.01 µM, first compound 0.3 µM): 5.55% | viability, T/C (second compound 0.01 µM, first compound 0.949 µM): 5.82% | viability, T/C (second compound 0.01 µM, first compound 3 µM): 5.04% | viability, T/C (second compound 0.0316 µM, first compound 0.00949 µM): 11.9% | viability, T/C (second compound 0.0316 µM, first compound 0.03 µM): 8.85% | viability, T/C (second compound 0.0316 µM, first compound 0.0949 µM): 5.62% | viability, T/C (second compound 0.0316 µM, first compound 0.3 µM): 5.69% | viability, T/C (second compound 0.0316 µM, first compound 0.949 µM): 4.2% | viability, T/C (second compound 0.0316 µM, first compound 3 µM): 5.94% | viability, T/C (second compound 0.1 µM, first compound 0.00949 µM): 12% | viability, T/C (second compound 0.1 µM, first compound 0.03 µM): 10.7% | viability, T/C (second compound 0.1 µM, first compound 0.0949 µM): 6.73% | viability, T/C (second compound 0.1 µM, first compound 0.3 µM): 6.23% | viability, T/C (second compound 0.1 µM, first compound 0.949 µM): 4.67% | viability, T/C (second compound 0.1 µM, first compound 3 µM): 5.57% | viability, T/C (second compound 0.316 µM, first compound 0.00949 µM): 12.5% | viability, T/C (second compound 0.316 µM, first compound 0.03 µM): 10.7% | viability, T/C (second compound 0.316 µM, first compound 0.0949 µM): 7.04% | viability, T/C (second compound 0.316 µM, first compound 0.3 µM): 5.56% | viability, T/C (second compound 0.316 µM, first compound 0.949 µM): 5.97% | viability, T/C (second compound 0.316 µM, first compound 3 µM): 6.29% | viability, T/C (second compound 1 µM, first compound 0.00949 µM): 11.2% | viability, T/C (second compound 1 µM, first compound 0.03 µM): 12.5% | viability, T/C (second compound 1 µM, first compound 0.0949 µM): 9.54% | viability, T/C (second compound 1 µM, first compound 0.3 µM): 5.59% | viability, T/C (second compound 1 µM, first compound 0.949 µM): 4.74% | viability, T/C (second compound 1 µM, first compound 3 µM): 6.71%

IC50 (second compound 0.00949 µM): > 10000 nM | IC50 (second compound 0.03 µM): > 10000 nM | IC50 (second compound 0.0949 µM): 59.8 nM | IC50 (second compound 0.3 µM): < 31.6 nM | IC50 (second compound 0.949 µM): < 31.6 nM | IC50 (second compound 3 µM): < 31.6 nM
SMILES: C#Cc1c(F)ccc2cc(O)cc(-c3ncc4c(N5CC6CCC(C5)N6)nc(OCC56CCCN5CC(F)C6)nc4c3F)c12 (centres undefined) + CCN1C(C(=O)NC23CCC(C(=O)O)(CC2)CC3)C(c2cccc(Cl)c2F)C2(C(=O)Nc3cc(Cl)ccc32)C12CCCCC2
viability, T/C (second compound 0.00949 µM, first compound 0.0316 µM): 92.6% | viability, T/C (second compound 0.00949 µM, first compound 0.1 µM): 114% | viability, T/C (second compound 0.00949 µM, first compound 0.316 µM): 111% | viability, T/C (second compound 0.00949 µM, first compound 1 µM): 102% | viability, T/C (second compound 0.00949 µM, first compound 3.16 µM): 107% | viability, T/C (second compound 0.00949 µM, first compound 10 µM): 76.4% | viability, T/C (second compound 0.03 µM, first compound 0.0316 µM): 100% | viability, T/C (second compound 0.03 µM, first compound 0.1 µM): 81.7% | viability, T/C (second compound 0.03 µM, first compound 0.316 µM): 91.8% | viability, T/C (second compound 0.03 µM, first compound 1 µM): 81.2% | viability, T/C (second compound 0.03 µM, first compound 3.16 µM): 102% | viability, T/C (second compound 0.03 µM, first compound 10 µM): 70.7% | viability, T/C (second compound 0.0949 µM, first compound 0.0316 µM): 47.6% | viability, T/C (second compound 0.0949 µM, first compound 0.1 µM): 60.5% | viability, T/C (second compound 0.0949 µM, first compound 0.316 µM): 36.4% | viability, T/C (second compound 0.0949 µM, first compound 1 µM): 42.2% | viability, T/C (second compound 0.0949 µM, first compound 3.16 µM): 47.8% | viability, T/C (second compound 0.0949 µM, first compound 10 µM): 32.9% | viability, T/C (second compound 0.3 µM, first compound 0.0316 µM): 27.1% | viability, T/C (second compound 0.3 µM, first compound 0.1 µM): 24.6% | viability, T/C (second compound 0.3 µM, first compound 0.316 µM): 28.6% | viability, T/C (second compound 0.3 µM, first compound 1 µM): 27.4% | viability, T/C (second compound 0.3 µM, first compound 3.16 µM): 23.5% | viability, T/C (second compound 0.3 µM, first compound 10 µM): 19.9% | viability, T/C (second compound 0.949 µM, first compound 0.0316 µM): 17.1% | viability, T/C (second compound 0.949 µM, first compound 0.1 µM): 19.2% | viability, T/C (second compound 0.949 µM, first compound 0.316 µM): 14.1% | viability, T/C (second compound 0.949 µM, first compound 1 µM): 17.8% | viability, T/C (second compound 0.949 µM, first compound 3.16 µM): 16.3% | viability, T/C (second compound 0.949 µM, first compound 10 µM): 10.8% | viability, T/C (second compound 3 µM, first compound 0.0316 µM): 12.8% | viability, T/C (second compound 3 µM, first compound 0.1 µM): 11.4% | viability, T/C (second compound 3 µM, first compound 0.316 µM): 11.5% | viability, T/C (second compound 3 µM, first compound 1 µM): 10.2% | viability, T/C (second compound 3 µM, first compound 3.16 µM): 14.1% | viability, T/C (second compound 3 µM, first compound 10 µM): 7.87%
